For experiment [1], the system named is Truncated N-terminal huntington 150 Q-EGFP-Neuron 2a cells. Description: Measurement of x-Fold (polyglutamine aggregation inhibitory activity). The class given is cell-based. As to the method: In the present invention, the polyglutamine aggregation inhibitory activity (x-Fold) can be measured, for example, by the method described in the Example.
The number of the aggregated cells, and the total number of cells were counted by Array Scan V T1 (manufactured by Cellomics, Pittuburg, USA), and the ratio of the aggregated cells to the total number of cells was determined (x-Fold). […]

For experiment [2], the system named is transglutaminase (TGase). Description: Measurement of TG (TGase inhibitory activity, monodansyl cadaverine / N,N-dimethylcasein fluorescence, FDSS 3000). The class given is biochemical. The method, boiled down:
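Compound (1 μL of 10 mM stock) added to 0.1 mL reaction: 100 mM HEPES-NaOH pH 7.5, 1 mM CaCl2, 20 μM monodansyl cadaverine, 0.05 mg/mL N,N-dimethylcasein, 5 μg/mL TGase. Rate of fluorescence change at 340 nm measured; DMSO control set to 100; TG50 is the concentration halving activity.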

Where [3] appears, read: polyglutamine aggregation inhibitory activity, Table 1.
Setting [4] is: ratio of aggregated cells to total number of cells, compound 20 μM, 20 hr, almost 1 without compound, smaller = stronger inhibition.
[5] abbreviates: TGase activity with compound (10 mM, 1 μL in 0.1 ml enzyme reaction solution), DMSO control taken as 100.
The mark [6] stands for this setting: TGase inhibitory activity value, Table 1.

Turning to `N#Cc1ccc(B(O)c2cccc(COCc3cccc(B(O)c4ccc(C#N)cc4)c3)c2)cc1` [Example 345, bis(3-(4-cyanophenylhydroxyboryl)benzyl)ether], the x-Fold in experiment [1] (setting [3]) and in experiment [1] (setting [4]) was 0.92 each time. The “TGase activity remaining (% of DMSO control = 100)” value in experiment [2] (setting [5]) and in experiment [2] (setting [6]) was 95 in each case.
For the molecule `OB(c1cccc(COCc2cccc(B(O)c3cccc4ccccc34)c2)c1)c1cccc2ccccc12` [Example 347, bis(3-(1′-naphthylhydroxyboryl)benzyl)ether], the x-Fold in experiment [1] (setting [4]) is recorded as 0.90. In experiment [2] (setting [5]), the “TGase activity remaining (% of DMSO control = 100)” value was found to be 104.
On to `COc1ccc(F)cc1B(O)c1ccc(COCc2ccc(B(O)c3cc(F)ccc3OC)cc2)cc1` [Example 349, bis(4-(2-methoxy-5-fluorophenylhydroxyboryl)benzyl)ether], for which the x-Fold in experiment [1] (setting [3]) and in experiment [1] (setting [4]) was 0.80 each time. In addition, the “TGase activity remaining (% of DMSO control = 100)” value in experiment [2] (setting [5]) and in experiment [2] (setting [6]) was 104 throughout.
As for `Cc1cc(B(OCCN)c2cccc(COCc3ccccc3B(OCCN)c3ccc(Cl)c(C)c3)c2)ccc1Cl` [Example 351], the x-Fold in experiment [1] (setting [3]) and in experiment [1] (setting [4]) was 1.00 throughout. Besides, the “TGase activity remaining (% of DMSO control = 100)” value in experiment [2] (setting [5]) and in experiment [2] (setting [6]) was 103 throughout.
For the molecule `OB(c1ccc(COCc2ccc(B(O)c3ccc(F)c(F)c3)cc2)cc1)c1ccc(F)c(F)c1` [Example 352, bis(4-(3,4-difluorophenylhydroxyboryl)benzyl)ether], the x-Fold in experiment [1] (setting [3]) and in experiment [1] (setting [4]) was 1.02 in each case. Further, the “TGase activity remaining (% of DMSO control = 100)” value in experiment [2] (setting [5]) and in experiment [2] (setting [6]) was 97 each time.
For the molecule `NCCOB(c1ccc(COCc2cccc(B(OCCN)c3cc(F)c(F)c(F)c3)c2)cc1)c1cc(F)c(F)c(F)c1` [Example 354, (3-(3′,4′,5′-trifluorophenylaminoethoxyboryl)benzyl)(4-(3′,4′,5′-trifluorophenylaminoethoxyboryl)benzyl)ether], the x-Fold in experiment [1] (setting [3]) and in experiment [1] (setting [4]) was 1.09 each time. For the same molecule, the “TGase activity remaining (% of DMSO control = 100)” value in experiment [2] (setting [5]) and in experiment [2] (setting [6]) was 113 in each case.
With `NCCOB(c1ccccc1)c1ccc(-c2ccc(B(OCCN)c3ccccc3)s2)s1` [Example 356, 5,5′-(phenylaminoethoxyboryl)-2,2′-dithiophene], the x-Fold in experiment [1] (setting [3]) and in experiment [1] (setting [4]) was 1.06 in each case. The “TGase activity remaining (% of DMSO control = 100)” value in experiment [2] (setting [5]) and in experiment [2] (setting [6]) was 51 each time.
With `c1ccc(B(OCCN2CCN(CCOB(c3ccccc3)c3ccccc3)CC2)c2ccccc2)cc1` [Example 356], the x-Fold in experiment [1] (setting [3]) is recorded as 0.94. Besides, the “TGase activity remaining (% of DMSO control = 100)” value in experiment [2] (setting [6]) turned out to be 126.
With `Cc1cc(B(OCCN)c2ccccc2)cc(B(OCCN)c2ccccc2)c1` [Example 357, 3,5-di(phenylaminoethoxyboryl)toluene], the x-Fold in experiment [1] (setting [3]) and in experiment [1] (setting [4]) was 1.03 in each case. The “TGase activity remaining (% of DMSO control = 100)” value in experiment [2] (setting [5]) and in experiment [2] (setting [6]) was 89 in each case.
Consider `Cc1cc(B(O)c2ccccc2)ccc1B(O)c1ccccc1` [Example 358, 2,5-di(phenylhydroxyboryl)toluene], for which the x-Fold in experiment [1] (setting [3]) and in experiment [1] (setting [4]) was 0.91 throughout. Besides, the “TGase activity remaining (% of DMSO control = 100)” value in experiment [2] (setting [5]) and in experiment [2] (setting [6]) was 112 throughout.
Consider `OB(c1ccccc1)c1ccc2ccccc2c1-c1c(B(O)c2ccccc2)ccc2ccccc12` [Example 359, 2,2′-di(phenylhydroxyboryl)-1,1′-binaphthyl], for which the x-Fold in experiment [1] (setting [3]) and in experiment [1] (setting [4]) was 0.96 in each case. The “TGase activity remaining (% of DMSO control = 100)” value in experiment [2] (setting [5]) and in experiment [2] (setting [6]) was 139 throughout.
Regarding `NCCOB(c1ccccc1)c1ccc2ccccc2c1-c1c(B(OCCN)c2ccccc2)ccc2ccccc12` [Example 360, 2,2′-di(phenylaminoethoxyboryl)-1,1′-binaphthyl], the x-Fold in experiment [1] (setting [3]) and in experiment [1] (setting [4]) was 1.05 throughout. Moreover, the “TGase activity remaining (% of DMSO control = 100)” value in experiment [2] (setting [5]) and in experiment [2] (setting [6]) was 88 in each case.
On to `Cc1ccc(NCCOBc2ccc(COCc3ccc(BOCCNc4ccc(C)cc4)cc3)cc2)cc1` [Example 362, bis(4-(4-methylphenylaminoethoxyboryl)benzyl)ether], for which the x-Fold in experiment [1] (setting [3]) and in experiment [1] (setting [4]) was 1.08 throughout. The “TGase activity remaining (% of DMSO control = 100)” value in experiment [2] (setting [5]) and in experiment [2] (setting [6]) was 108 throughout.
Take `Cc1ccc(B(O)c2ccc(-c3ccc(B(O)c4ccc(C)cc4)cc3)cc2)cc1` [Example 363, 4,4′-(4-methylphenylhydroxyboryl)diphenyl]: the x-Fold in experiment [1] (setting [3]) and in experiment [1] (setting [4]) was 0.92 each time. Moreover, the “TGase activity remaining (% of DMSO control = 100)” value in experiment [2] (setting [5]) and in experiment [2] (setting [6]) was 97 each time.
With `Cc1ccc(B(OCCN)c2ccc(-c3ccc(B(OCCN)c4ccc(C)cc4)cc3)cc2)cc1` [Example 364, 4,4′-(4-methylphenylaminoethoxyboryl)diphenyl], the x-Fold in experiment [1] (setting [3]) and in experiment [1] (setting [4]) was 0.82 each time. For the same molecule, the “TGase activity remaining (% of DMSO control = 100)” value in experiment [2] (setting [5]) and in experiment [2] (setting [6]) was 44 throughout.
With `Cc1ccc(B(O)c2ccc(Oc3ccc(B(O)c4ccc(C)cc4)cc3)cc2)cc1` [Example 365, 4,4′-(4-methylphenylhydroxyboryl)diphenylether], the x-Fold in experiment [1] (setting [3]) and in experiment [1] (setting [4]) was 0.91 throughout. Besides, the “TGase activity remaining (% of DMSO control = 100)” value in experiment [2] (setting [5]) and in experiment [2] (setting [6]) was 118 throughout.
Take `Cc1ccc(B(O)c2ccc(Oc3ccc(B(O)c4ccc(C)c(Cl)c4)cc3)cc2)cc1Cl` [Example 367, 4,4′-bis(3-chloro-4-methyl-phenylhydroxyboryl)diphenylether]: the x-Fold in experiment [1] (setting [3]) and in experiment [1] (setting [4]) was 0.73 each time. Besides, the “TGase activity remaining (% of DMSO control = 100)” value in experiment [2] (setting [5]) and in experiment [2] (setting [6]) was 113 in each case.
Take `OB(c1ccccc1)c1ccccc1CCOCc1ccccc1B(O)c1ccccc1` [Example 368, (2-(phenylhydroxyboryl)phenethyl)((2-phenylhydroxyboryl)benzyl)ether]: the x-Fold in experiment [1] (setting [3]) and in experiment [1] (setting [4]) was 1.03 each time. Further, the “TGase activity remaining (% of DMSO control = 100)” value in experiment [2] (setting [5]) and in experiment [2] (setting [6]) was 52 each time.
In experiment [1] (setting [3]), `Cc1ccc(Cl)cc1B(OCC1CCCCN1)c1cc(Cl)ccc1C` (stereo not drawn) [Example 371] came in with a x-Fold of 1.17. The “TGase activity remaining (% of DMSO control = 100)” value in experiment [2] (setting [6]) is on record as 98.
`OB(c1ccc(C(F)(F)F)cc1)c1c2ccccc2c(B(O)c2ccc(C(F)(F)F)cc2)c2ccccc12` [Example 374]: the x-Fold in experiment [1] (setting [3]) and in experiment [1] (setting [4]) was 1.14 throughout. Also, the “TGase activity remaining (% of DMSO control = 100)” value in experiment [2] (setting [5]) and in experiment [2] (setting [6]) was 17 throughout.
With `NCCOB(c1ccc(C(F)(F)F)cc1)c1c2ccccc2c(B(OCCN)c2ccc(C(F)(F)F)cc2)c2ccccc12` [Example 375], the x-Fold in experiment [1] (setting [3]) and in experiment [1] (setting [4]) was 1.05 in each case. The “TGase activity remaining (% of DMSO control = 100)” value in experiment [2] (setting [5]) and in experiment [2] (setting [6]) was 44 each time.

The values above are taken from patent US8853424B2 (Japan Science and Technology Agency, priority 2008, dated 2014).
